Patent US9066965B1, “Purified limonin glucoside for prevention and treatment of chronic diseases” (The United States of America, as represented by the …, priority 2012, dated 2015)

How the values were obtained:
Format in all cases: in vivo, human
[1] = Comprehensive metabolic panel (CMP) on serum
Procedure: (§1) CMP performed on serum samples at the chemistry laboratory of University of California Medical Center by using the Beckman Coulter DxC800. GGT and CKMB were determined in the EDTA plasma. GGT activity was determined by using Integra 400 Chemistry Analyzer, Roche Diagnostics. CKMB concentration was determined by using the Multiplex kits from Mesoscale Discovery (Gaithersburg, Md. 20877).
(§2) SAS PROC MIXED was used to fit the cross-over model (Littell R C, Milliken G A, Stroup W W, Wolfinger R D, Schabenberger O. SAS System for Mixed Models. Cay, N.C.: SAS Institute Inc.; 2006). Transformations were used when appropriate to stabilize the variances among the diets and periods. The fixed effects were order, diet, the interaction and the covariate; and the random effect was subjects within order. The test for order is a test for carry-over effect. […] Comparisons were made between the values at the end of placebo and LG treatments and using the baseline data as a covariate. Results are presented as means±SEM. Differences were considered statistically significant for P value<0.05.

[2] = test system: alanine amino transferase (ALT); assay: Serum alanine amino transferase (CMP); conditions: 500 mg/d, 56 days
Procedure: as §1, §2

[3] = test system: creatinine kinase MB (CKMB); assay: Plasma CKMB concentration (Mesoscale multiplex); conditions: EDTA plasma; End LG, 500 mg/d, 56 days, n = 10, mean ± SEM
Procedure: as §1, §2

[4] = Serum lipids and lipoproteins
Text: Serum lipids were part of the CMP performed at University of California Medical Center (UCDMC) by using the Beckman Coulter DxC800 instrument. Lipoproteins A1 and B were ascertained in EDTA plasma using a Cobas Integra 400 Plus instrument with Roche reagents (Roche Diagnostics Corp., Indianapolis, Ind.). Lipoproteins C2, C3 and E were quantified in serum using a Cobas Integra 400 Plus instrument with Kamiya reagents (Kamiya Biomedical Co., Seattle, Wash.).
(§3) Results are presented as means±SEM.

[5] = Lipoprotein size and sub fraction concentrations by NMR
Procedure: Mean particle size, total number of particles and their number within different subclasses of VLDL, LDL, and HDL, were determined by NMR methods. For this analysis frozen plasma samples were shipped in dry ice by overnight delivery to LipoScience Inc., who performed the analysis.
as §3

[6] = Serum/plasma concentrations of inflammatory markers
Procedure: Plasma concentrations of epidermal growth factor (EGF), interleukin-13 (IL-13), interleukin-1 receptor antagonist (IL-1Ra), and tumor necrosis factor α (TNF α) were analyzed in EDTA plasma on a Sector Imager 2400 instrument using a multiplex kits from MSD (Meso-Scale Discovery, Gaithersburg, Md.). Concentrations of C reactive protein (CRP), and complement 3 and 4 (C3, C4) were analyzed in serum by using an Integra 400 Plus Chemistry Analyzer, (Roche Diagnostics Corp., Indianapolis, Ind.). Serum amyloid A (SAA), soluble intracellular adhesion molecule-1 (sICAM-1), and soluble vascular cell adhesion molecule-1 (sVCAM-1) were tested in serum on a Sector Imager 2400 instrument using a multiplex kit from MSD (Meso-Scale Discovery, Gaithersburg, Md.).
as §3

[7] = serum, End LG, 500 mg/d, 56 days, n = 10, mean ± SEM
[8] = End LG, 500 mg/d, 56 days, n = 10, mean ± SEM
[9] = plasma, NMR, End LG, 500 mg/d, 56 days, n = 10, mean ± SEM
[10] = EDTA plasma, End LG, 500 mg/d, 56 days, n = 10, mean ± SEM

SMILES: CC1(C)O[C@H]2CC(=O)OC[C@]23[C@H]2CC[C@@](C)([C@@H](O[C@@H]4O[C@H](CO)[C@@H](O)[C@H](O)[C@H]4O)c4ccoc4)[C@@]4(O[C@@H]4C(=O)O)[C@]2(C)C(=O)C[C@@H]13 [LG, limonin glucoside]
- Albumin [1, 7]: 3.95 ± 0.05 g/dL
- Aspartate amino transferase [1, 7]: 23.3 ± 2.22 U/L
- CO2 [1, 7]: 29.10 ± 0.48 mEq/L
- Calcium [1, 7]: 9.42 ± 0.06 mg/dL
- Chloride [1, 7]: 104.80 ± 0.81 mEq/L
- Creatinine [1, 7]: 0.84 ± 0.03 mg/dL
- Glucose [1, 7]: 89.7 ± 2.58 mg/dL
- Lactate dehydrogenase [1, 7]: 126.80 ± 8.90 U/L
- Potassium [1, 7]: 4.61 ± 0.12 mEq/L
- Protein [1, 7]: 6.59 ± 0.08 g/dL
- Sodium [1, 7]: 140.80 ± 0.68 mEq/L
- Total bilirubin [1, 7]: 0.81 ± 0.08 mg/dL
- Urea [1, 7]: 11.70 ± 0.92 mg/dL
- effect on circulating concentration of AST ([1]; vs end of placebo treatment): did not significantly decrease
- effect on serum albumin, total protein, glucose, aspartate amino transferase, lactate dehydrogenase, calcium, potassium, sodium, chloride, CO2, creatinine, CKMB, total bilirubin, urea ([1]; vs end of placebo treatment): did not alter
- Alanine amino trasferase ([2]; serum, End LG, n = 10, mean ± SEM): 25.2 ± 5.08 U/L
- decrease of serum alanine aminotransferase (ALT) activity ([2]; vs end of placebo treatment, p=0.041): 13.1%
- CKMB [3]: 2.60 ± 0.50 ng/mL
- Lipoprotein A1 [4, 8]: 142.91 ± 4.18 mg/dL
- Lipoprotein B [4, 8]: 114.5 ± 6.45 mg/dL
- Lipoprotein C2 [4, 8]: 6.21 ± 0.50 mg/dL
- Lipoprotein C3 [4, 8]: 13.28 ± 1.05 mg/dL
- Lipoprotein E [4, 8]: 4.91 ± 0.32 mg/dL
- change in plasma concentrations of Apo B ([4]; Table 4): did not find any change
- Cholesterol [4, 7]: 231.70 ± 8.83 mg/dL
- HDL-C [4, 7]: 44.20 ± 2.59 mg/dL
- LDL-C (Calc) [4, 7]: 159.10 ± 7.37 mg/dL
- Non-HDL-C [4, 7]: 187.50 ± 10.63 mg/dL
- Total-C:HDL-C [4, 7]: 5.47 ± 0.47
- Triglycerides [4, 7]: 142.60 ± 23.64 mg/dL
- effect on serum total-, HDL-, LDL-, non-HDL-cholesterol, triglycerides, lipoproteins A1, B, C2, C3, E ([4]; vs end of placebo treatment): did not alter
- Calculated TG total [5, 9]: 150.50 ± 22.84 mg/dL
- Calculated cholesterol total [5, 9]: 208.50 ± 5.45 mg/dL
- HDL cholesterol total [5, 9]: 46.10 ± 2.65 mg/dL
- IDL cholesterol [5, 9]: 8.93 ± 1.83 mg/dL
- IDL particles [5, 9]: 71.80 ± 14.77 nmols/L
- LDL total cholesterol [5, 9]: 137.60 ± 5.14 mg/dL
- Large HDL cholesterol [5, 9]: 20.19 ± 3.24 mg/dL
- Large HDL particles [5, 9]: 6.57 ± 0.99 μmols/L
- Large LDL cholesterol [5, 9]: 67.24 ± 9.75 mg/dL
- Large LDL particles [5, 9]: 495.80 ± 71.47 nmols/L
- Large VLDL & chylomicron TG [5, 9]: 33.01 ± 13.18 mg/dL
- Large VLDL & chylomicron particles [5, 9]: 3.50 ± 1.64 nmol/L
- Mean particle size (HDL particles) [5, 9]: 8.86 ± 0.12 nm
- Mean particle size (LDL particles) [5, 9]: 20.94 ± 0.26 nm
- Mean particle size (VLDL & chylomicron particles) [5, 9]: 48.60 ± 2.25 nm
- Medium HDL cholesterol [5, 9]: 5.87 ± 1.87 mg/dL
- Medium HDL particles [5, 9]: 4.54 ± 1.43 μmols/L
- Medium VLDL & chylomicron particles [5, 9]: 37.70 ± 8.22 nmol/L
- Medium VLDL TG [5, 9]: 53.08 ± 11.93 mg/dL
- Medium small LDL cholesterol [5, 9]: 22.60 ± 3.80 mg/dL
- Medium small LDL particles [5, 9]: 208.40 ± 35.06 nmols/L
- Small HDL cholesterol [5, 9]: 20.03 ± 1.91 mg/dL
- Small HDL particles [5, 9]: 20.25 ± 1.94 μmols/L
- Small LDL cholesterol [5, 9]: 61.47 ± 10.32 mg/dL
- Small VLDL & chylomicron particles [5, 9]: 45.47 ± 5.95 nmol/L
- Small VLDL TG [5, 9]: 20.32 ± 2.64 mg/dL
- Total HDL particles [5, 9]: 31.35 ± 0.95 μmols/L
- Total LDL particle [5, 9]: 1582.80 ± 118.15 nmols/L
- Total VLDL & chylomicron particles [5, 9]: 86.69 ± 13.15 nmol/L
- Total small LDL particles [5, 9]: 1015.20 ± 169.46 nmols/L
- VLDL & chylomicron total TG [5, 9]: 106.50 ± 22.20 mg/dL
- Very small LDL cholesterol [5, 9]: 38.91 ± 6.55 mg/dL
- Very small LDL particles [5, 9]: 806.80 ± 134.82 nmols/L
- effect on mean particle sizes and sub-fraction concentrations of VLDL, LDL, HDL ([5]; vs end of placebo treatment): did not alter
- EGF [6, 10]: 106.02 ± 52.55 pg/mL
- IL-1Ra [6, 10]: 194.93 ± 27.03 pg/mL
- IL-13 [6, 10]: 2.42 ± 0.27 pg/mL
- TNF a [6, 10]: 0.58 ± 0.20 pg/mL
- C4 [6, 7]: 0.29 ± 0.02 mg/mL
- CRP [6, 7]: 1.64 ± 0.25 µg/mL
- SAA [6, 7]: 4.06 ± 0.77 µg/mL
- sICAM-1 [6, 7]: 0.25 ± 0.02 µg/mL
- sVCAM-1 [6, 7]: 0.41 ± 0.04 µg/mL
- effect on plasma EGF, IL-13, IL-1Ra, TNF α and serum CRP, SAA, sICAM-1, sVCAM-1, C4 ([6]; vs end of placebo treatment): not altered
